# Assays:
# [1] = biological target: T1, Alpha-2A adrenergic receptor (Homo sapiens, UniProt P08913)
# T1 sequence (P08913 whole entry): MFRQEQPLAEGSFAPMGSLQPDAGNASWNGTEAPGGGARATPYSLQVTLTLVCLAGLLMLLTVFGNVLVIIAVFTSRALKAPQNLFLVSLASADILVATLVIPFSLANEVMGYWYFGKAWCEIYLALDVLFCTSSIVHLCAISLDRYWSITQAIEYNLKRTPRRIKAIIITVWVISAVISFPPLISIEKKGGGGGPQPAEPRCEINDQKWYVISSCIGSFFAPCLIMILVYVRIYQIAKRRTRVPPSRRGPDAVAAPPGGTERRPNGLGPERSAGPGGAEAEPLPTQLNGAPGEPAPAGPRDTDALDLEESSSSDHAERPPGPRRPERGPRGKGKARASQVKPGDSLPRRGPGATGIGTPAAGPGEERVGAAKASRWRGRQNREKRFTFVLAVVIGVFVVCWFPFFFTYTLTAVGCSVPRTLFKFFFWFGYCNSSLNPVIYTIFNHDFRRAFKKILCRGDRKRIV
# [2] = biological target: Melanocortin receptor 4 (Homo sapiens, UniProt P32245)
# [3] = biological target: T2, Glucocorticoid receptor (Homo sapiens, UniProt P04150)
# T2 sequence (P04150 whole entry): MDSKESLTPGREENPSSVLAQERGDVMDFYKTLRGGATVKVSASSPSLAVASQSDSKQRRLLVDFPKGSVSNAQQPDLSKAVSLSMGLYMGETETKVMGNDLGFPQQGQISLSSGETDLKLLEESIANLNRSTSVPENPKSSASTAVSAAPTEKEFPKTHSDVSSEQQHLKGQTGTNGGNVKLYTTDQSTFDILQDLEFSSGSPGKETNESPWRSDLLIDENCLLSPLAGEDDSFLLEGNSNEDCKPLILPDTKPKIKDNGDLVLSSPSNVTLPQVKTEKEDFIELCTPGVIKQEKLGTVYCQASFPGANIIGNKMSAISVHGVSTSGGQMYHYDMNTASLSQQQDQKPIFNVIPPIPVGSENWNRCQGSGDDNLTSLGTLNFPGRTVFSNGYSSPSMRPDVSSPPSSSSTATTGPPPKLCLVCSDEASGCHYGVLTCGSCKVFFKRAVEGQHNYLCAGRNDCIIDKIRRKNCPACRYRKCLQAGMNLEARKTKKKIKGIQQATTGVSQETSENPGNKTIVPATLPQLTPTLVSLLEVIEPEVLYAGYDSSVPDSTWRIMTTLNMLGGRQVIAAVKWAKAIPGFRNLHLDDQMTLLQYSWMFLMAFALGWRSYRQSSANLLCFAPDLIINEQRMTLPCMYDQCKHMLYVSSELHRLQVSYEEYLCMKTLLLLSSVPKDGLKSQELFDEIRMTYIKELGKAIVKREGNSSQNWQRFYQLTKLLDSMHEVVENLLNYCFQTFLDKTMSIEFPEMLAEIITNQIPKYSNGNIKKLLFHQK
# [4] = biological target: Cannabinoid receptor 1 (Homo sapiens, UniProt P21554)
# [5] = biological target: Beta-1 adrenergic receptor (Homo sapiens, UniProt P08588); type: functional
# [6] = biological target: T3, Muscarinic acetylcholine receptor M2 (Homo sapiens, UniProt P08172)
# T3 sequence (P08172 whole entry): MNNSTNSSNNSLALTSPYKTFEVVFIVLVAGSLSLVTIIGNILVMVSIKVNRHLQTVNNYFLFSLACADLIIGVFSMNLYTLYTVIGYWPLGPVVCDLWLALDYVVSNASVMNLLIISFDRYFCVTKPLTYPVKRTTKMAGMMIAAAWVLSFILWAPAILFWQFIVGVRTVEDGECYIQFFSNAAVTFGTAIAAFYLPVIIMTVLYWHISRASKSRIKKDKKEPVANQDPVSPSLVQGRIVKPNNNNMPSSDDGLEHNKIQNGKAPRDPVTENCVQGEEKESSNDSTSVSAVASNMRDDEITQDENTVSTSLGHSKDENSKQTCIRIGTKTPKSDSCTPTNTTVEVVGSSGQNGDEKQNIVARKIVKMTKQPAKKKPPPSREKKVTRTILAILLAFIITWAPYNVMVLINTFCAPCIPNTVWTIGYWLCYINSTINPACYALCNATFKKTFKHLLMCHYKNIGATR
# [7] = biological target: T4, Alpha-1A adrenergic receptor (Homo sapiens, UniProt P35348); type: functional, cell-based
# T4 sequence (P35348 whole entry): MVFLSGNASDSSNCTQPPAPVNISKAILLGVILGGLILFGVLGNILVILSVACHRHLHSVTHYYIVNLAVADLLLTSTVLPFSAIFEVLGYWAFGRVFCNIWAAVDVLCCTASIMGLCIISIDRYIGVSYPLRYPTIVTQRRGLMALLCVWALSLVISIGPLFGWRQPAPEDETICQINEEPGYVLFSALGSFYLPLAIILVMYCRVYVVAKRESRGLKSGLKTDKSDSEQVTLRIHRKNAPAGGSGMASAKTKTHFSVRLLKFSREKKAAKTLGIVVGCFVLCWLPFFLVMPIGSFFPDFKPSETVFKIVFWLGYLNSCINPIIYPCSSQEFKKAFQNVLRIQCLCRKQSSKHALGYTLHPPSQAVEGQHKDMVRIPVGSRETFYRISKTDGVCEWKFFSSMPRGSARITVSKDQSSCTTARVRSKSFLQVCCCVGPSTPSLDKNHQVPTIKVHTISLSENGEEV
# [8] = biological target: T5, Thromboxane A2 receptor (Homo sapiens, UniProt P21731); type: functional, cell-based
# T5 sequence (P21731 whole entry): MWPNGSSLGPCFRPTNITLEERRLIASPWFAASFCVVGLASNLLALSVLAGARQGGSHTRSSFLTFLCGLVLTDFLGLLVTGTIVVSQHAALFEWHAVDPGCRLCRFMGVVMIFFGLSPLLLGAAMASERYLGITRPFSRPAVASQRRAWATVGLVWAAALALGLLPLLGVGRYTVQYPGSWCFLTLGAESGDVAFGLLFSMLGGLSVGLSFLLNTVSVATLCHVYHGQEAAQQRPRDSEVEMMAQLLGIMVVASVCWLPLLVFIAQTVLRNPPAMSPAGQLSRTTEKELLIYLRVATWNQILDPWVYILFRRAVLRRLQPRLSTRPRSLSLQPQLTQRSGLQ
# [9] = biological target: Sodium-dependent noradrenaline transporter (Homo sapiens, UniProt P23975)
# [10] = biological target: T4, Alpha-1A adrenergic receptor; type: functional, cell-based; remark: listed apart in the source
# [11] = biological target: T6, 5-hydroxytryptamine receptor 2A (Homo sapiens, UniProt P28223); type: functional, cell-based
# [12] = biological target: T6, 5-hydroxytryptamine receptor 2A; type: functional, cell-based; remark: listed apart in the source
# Also: assay procedure not described here.
# Melanocortin receptor 4, sequence (P32245 whole entry): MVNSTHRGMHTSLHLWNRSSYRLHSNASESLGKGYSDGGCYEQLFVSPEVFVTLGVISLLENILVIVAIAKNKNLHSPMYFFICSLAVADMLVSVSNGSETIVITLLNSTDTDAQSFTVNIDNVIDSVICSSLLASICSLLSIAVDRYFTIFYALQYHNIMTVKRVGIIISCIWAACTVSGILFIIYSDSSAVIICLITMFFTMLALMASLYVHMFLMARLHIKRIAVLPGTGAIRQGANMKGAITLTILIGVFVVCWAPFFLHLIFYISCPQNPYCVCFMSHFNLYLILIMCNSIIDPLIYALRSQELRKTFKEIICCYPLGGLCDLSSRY
# T6 sequence (P28223 whole entry): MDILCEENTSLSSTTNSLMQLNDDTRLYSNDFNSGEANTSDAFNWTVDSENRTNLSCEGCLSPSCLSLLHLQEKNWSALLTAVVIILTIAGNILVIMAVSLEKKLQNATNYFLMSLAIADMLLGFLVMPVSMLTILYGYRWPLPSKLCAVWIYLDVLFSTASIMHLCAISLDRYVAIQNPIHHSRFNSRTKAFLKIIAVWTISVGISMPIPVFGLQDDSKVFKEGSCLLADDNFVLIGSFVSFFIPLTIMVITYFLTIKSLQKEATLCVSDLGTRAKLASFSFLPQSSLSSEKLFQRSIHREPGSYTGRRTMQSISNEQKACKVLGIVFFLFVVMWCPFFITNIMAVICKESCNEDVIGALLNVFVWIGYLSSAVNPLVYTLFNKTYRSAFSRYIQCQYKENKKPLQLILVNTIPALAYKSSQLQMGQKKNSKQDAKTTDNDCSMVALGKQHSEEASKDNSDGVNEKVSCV
# Beta-1 adrenergic receptor, sequence (P08588 whole entry): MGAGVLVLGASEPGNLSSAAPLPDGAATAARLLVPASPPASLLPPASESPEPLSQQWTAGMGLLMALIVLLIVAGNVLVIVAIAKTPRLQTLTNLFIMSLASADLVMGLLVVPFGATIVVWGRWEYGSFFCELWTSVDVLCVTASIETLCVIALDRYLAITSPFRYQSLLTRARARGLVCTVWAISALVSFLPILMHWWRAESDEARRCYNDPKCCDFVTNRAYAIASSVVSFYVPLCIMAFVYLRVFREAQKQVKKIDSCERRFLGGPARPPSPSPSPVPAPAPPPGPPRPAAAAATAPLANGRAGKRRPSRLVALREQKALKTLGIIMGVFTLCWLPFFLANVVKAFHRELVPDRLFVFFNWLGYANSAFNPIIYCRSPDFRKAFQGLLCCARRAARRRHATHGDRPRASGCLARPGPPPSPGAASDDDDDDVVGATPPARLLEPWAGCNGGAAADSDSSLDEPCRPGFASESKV
# Sodium-dependent noradrenaline transporter, sequence (P23975 whole entry): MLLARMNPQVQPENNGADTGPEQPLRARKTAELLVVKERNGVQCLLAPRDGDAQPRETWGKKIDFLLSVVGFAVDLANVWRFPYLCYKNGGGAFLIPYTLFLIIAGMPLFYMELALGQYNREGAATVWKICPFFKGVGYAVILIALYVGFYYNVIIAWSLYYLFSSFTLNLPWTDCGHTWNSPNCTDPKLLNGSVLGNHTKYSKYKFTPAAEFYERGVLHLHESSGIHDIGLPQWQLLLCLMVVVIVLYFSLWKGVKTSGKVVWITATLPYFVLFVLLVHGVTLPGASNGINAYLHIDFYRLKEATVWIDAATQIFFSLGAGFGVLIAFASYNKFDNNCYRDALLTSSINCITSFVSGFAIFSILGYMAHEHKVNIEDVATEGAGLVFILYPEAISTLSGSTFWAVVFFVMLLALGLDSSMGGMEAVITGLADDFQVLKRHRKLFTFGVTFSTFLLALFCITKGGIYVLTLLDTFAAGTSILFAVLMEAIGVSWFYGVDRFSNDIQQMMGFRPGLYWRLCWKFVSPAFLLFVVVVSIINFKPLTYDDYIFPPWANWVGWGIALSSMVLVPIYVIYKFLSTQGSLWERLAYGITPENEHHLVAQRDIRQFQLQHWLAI
# Cannabinoid receptor 1, sequence (P21554 whole entry): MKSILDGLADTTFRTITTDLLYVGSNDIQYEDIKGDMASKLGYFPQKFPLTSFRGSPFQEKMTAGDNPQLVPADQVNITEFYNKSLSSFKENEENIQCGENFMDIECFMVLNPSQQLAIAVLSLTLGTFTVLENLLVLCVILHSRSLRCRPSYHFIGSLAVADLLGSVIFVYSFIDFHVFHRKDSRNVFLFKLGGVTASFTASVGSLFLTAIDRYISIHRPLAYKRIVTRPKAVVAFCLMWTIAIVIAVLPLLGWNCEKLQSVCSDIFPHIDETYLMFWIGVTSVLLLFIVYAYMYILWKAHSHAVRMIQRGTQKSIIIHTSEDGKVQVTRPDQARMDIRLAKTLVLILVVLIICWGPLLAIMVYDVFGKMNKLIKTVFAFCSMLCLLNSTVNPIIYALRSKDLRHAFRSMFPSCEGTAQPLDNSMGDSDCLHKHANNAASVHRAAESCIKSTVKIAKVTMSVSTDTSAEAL
SMILES,AC50 [1],AC50 [2],AC50 [3],AC50 [4],AC50 [5],AC50 [6],AC50 [7],AC50 [8],AC50 [9],AC50 [10],AC50 [11],AC50 [12]
CCOC(=O)[C@H](CCc1ccccc1)N[C@@H](C)C(=O)N1Cc2ccccc2C[C@H]1C(=O)O,> 30 µM,> 30 µM,> 30 µM,> 10 µM,> 10 µM,> 30 µM,> 30 µM,> 30 µM,> 30 µM,> 30 µM,,
C=CC1=C(C(=O)O)N2C(=O)[C@@H](NC(=O)/C(=N\O)c3csc(N)n3)[C@H]2SC1,,> 30 µM,,15.8 µM,> 30 µM,,> 30 µM,,,,> 30 µM,> 30 µM
O=C(O)COC(=O)Cc1ccccc1Nc1c(Cl)cccc1Cl [ACECLOFENAC],,> 30 µM,,,> 10 µM,,> 30 µM,,,,,
NCCCCCC(=O)O [AMINOCAPROIC ACID],,> 10 µM,> 10 µM,> 10 µM,> 10 µM,,,,,,,
CN(C)CCC=C1c2ccccc2CCc2ccccc21 [AMITRIPTYLINE],1.27 µM,17.7 µM,> 30 µM,> 10 µM,22.7 µM,,0.12 µM,26.3 µM,,> 30 µM,,
CC(=O)Oc1ccccc1C(=O)O [ASPIRIN],> 30 µM,> 30 µM,> 30 µM,> 10 µM,> 10 µM,> 30 µM,> 30 µM,> 30 µM,> 30 µM,> 30 µM,,
CC(C)NCC(O)COc1ccc(CC(N)=O)cc1 (stereo not drawn) [ATENOLOL],,> 30 µM,,26 µM,,,> 30 µM,,,,,
C[C@H](CS)C(=O)N1CCC[C@H]1C(=O)O [CAPTOPRIL],,> 30 µM,> 30 µM,> 10 µM,> 10 µM,,> 30 µM,,,,,
CN(C)CCOC(c1ccc(Cl)cc1)c1ccccn1 (stereo not drawn) [CARBINOXAMINE],,,> 30 µM,,,,> 30 µM,,,,> 30 µM,> 30 µM
O=C(Cc1cccs1)N[C@@H]1C(=O)N2C(C(=O)[O-])=C(C[n+]3ccccc3)CS[C@H]12 [CEPHALORIDINE],> 30 µM,,,,,> 30 µM,> 30 µM,> 30 µM,> 30 µM,,> 30 µM,> 30 µM
CN(C)CCCC1(c2ccc(F)cc2)OCc2cc(C#N)ccc21 (stereo not drawn) [CITALOPRAM],> 30 µM,> 30 µM,> 30 µM,> 10 µM,> 10 µM,,,> 30 µM,,,,
CC(C)/N=c1\cc2n(-c3ccc(Cl)cc3)c3ccccc3nc-2cc1Nc1ccc(Cl)cc1 [CLOFAZIMINE],,,0.034 µM,,> 30 µM,,> 30 µM,,,,> 30 µM,> 30 µM
C[C@H](Nc1ncnc2[nH]cnc12)c1cc2cccc(Cl)c2c(=O)n1-c1ccccc1 [DUVELISIB],> 30 µM,,,,> 30 µM,> 30 µM,> 30 µM,15.1 µM,> 30 µM,,18 µM,> 30 µM
COC(=O)CCc1ccc(OCC(O)CNC(C)C)cc1 (stereo not drawn) [ESMOLOL],,,> 30 µM,> 30 µM,0.856 µM,,> 30 µM,,,,,
C[C@]12CCC(=O)C=C1CC[C@H]1[C@@H]3CC[C@](O)(C(=O)CO)[C@@]3(C)C[C@H](O)[C@@]12F [FLUDROCORTISONE],,> 30 µM,,> 10 µM,> 10 µM,,> 30 µM,,,,> 30 µM,> 30 µM
CCOC(=O)Nc1ccc(NCc2ccc(F)cc2)nc1N [FLUPIRTINE],,,> 30 µM,,> 30 µM,,,,,,> 10 µM,> 30 µM
NCC1(CC(=O)O)CCCCC1 [GABAPENTIN],> 30 µM,> 30 µM,> 30 µM,> 10 µM,> 30 µM,> 30 µM,> 30 µM,> 30 µM,> 30 µM,> 30 µM,,
CCN(CCO)CCCC(C)Nc1ccnc2cc(Cl)ccc12 (stereo not drawn) [HYDROXYCHLOROQUINE],,> 10 µM,> 10 µM,> 10 µM,,,,,,,,
O=C(c1ccccc1)c1ccc2n1CCC2C(=O)O (stereo not drawn) [KETOROLAC],,> 10 µM,,> 30 µM,> 10 µM,,> 30 µM,,,,,
Nc1nnc(-c2cccc(Cl)c2Cl)c(N)n1 [LAMOTRIGINE],,> 30 µM,,> 10 µM,> 10 µM,,> 30 µM,,,,,
N[C@@H](Cc1cc(I)c(Oc2cc(I)c(O)c(I)c2)c(I)c1)C(=O)O [LEVOTHYROXINE],,,> 30 µM,,> 30 µM,,> 30 µM,,,,> 30 µM,> 30 µM
C#CCN(C)Cc1ccccc1 [PARGYLINE],> 30 µM,,,,,> 30 µM,> 30 µM,> 30 µM,> 30 µM,,> 30 µM,> 30 µM
CCC1(c2ccccc2)C(=O)NCNC1=O [PRIMIDONE],,> 10 µM,> 10 µM,> 10 µM,> 10 µM,,,,,,,
CCOc1ccccc1OCCN[C@H](C)Cc1ccc(OC)c(S(N)(=O)=O)c1 [TAMSULOSIN],,> 30 µM,,> 10 µM,2.5 µM,,,,,,> 30 µM,> 30 µM
Cc1c(C)c2c(c(C)c1O)CCC(C)(COc1ccc(CC3SC(=O)NC3=O)cc1)O2 (stereo not drawn) [TROGLITAZONE],10.3 µM,> 30 µM,,> 30 µM,20 µM,17.8 µM,> 30 µM,,4.11 µM,> 30 µM,,
